Where two headings read alike, the source gives them in different places.
How the values were obtained:
[1] = biological target: T1, sucrase (carbohydrase derived from rabbit small intestine mucous membrane) (Oryctolagus cuniculus, UniProt P07768); assay: Action to inhibit the hydrolytic activity of homogenate prepared from rabbit small intestine mucous membrane: sucrase inhibition; format: biochemical
T1 construct: suspended again in a 10 mM potassium phosphate buffer (pH: 7.0), thereby obtaining a crude enzyme suspension; from tissue; host or cells: rabbit small intestine (title: mucous membrane), homogenate, 60,000×g precipitate
Experimental: (§1) (Action to inhibit the hydrolytic activity of homogenate prepared from rabbit small intestine mucous membrane to carbohydrate)
(§2) A native kind of white rabbits (weight: 3.0-3.5 kg) were sacrificed by exsanguination to take out their small intestines.
(§3) After freezing and thawing the small intestines thus taken out, they were homogenized in a 5 mM EDTA buffer (pH: 7.0) and subjected to centrifugation for 60 minutes at 60,000×g. Precipitate thus formed was collected and suspended again in a 10 mM potassium phosphate buffer (pH: 7.0), thereby obtaining a crude enzyme suspension.
(§4) Sucrose (20 mM) and maltose (20 mM) were used as substrates.
(§5) Each reaction mixture was formulated so as to contain 350 microliters of a 100 mM maleate buffer (pH: 6.8), 100 microliters of a substrate solution, 50 microliters of the crude enzyme suspension and 50 microliters of a test solution. Substances to be tested were separately dissolved in a maleate buffer (pH: 6.8) before use.
(§6) Respective reactions were conducted for 15 minutes at 37° C.

[2] = test system: maltase (carbohydrase derived from rabbit small intestine mucous membrane); assay: Action to inhibit the hydrolytic activity of homogenate prepared from rabbit small intestine mucous membrane: maltase inhibition; format: biochemical; details: for Maltase inhibition rate: substrate maltose 20 mM, pH 6.8, 37° C., 15 minutes
Experimental: as §1, §2, §3, §4, §5, §6

[3] = test system: rise in blood sugar; assay: Action to depress the rise in blood sugar after sucrose loading to mice; format: in vivo, ICR male mice; details: for Rise in blood sugar / action to depress the rise in blood sugar due to sucrose loading (in words): sucrose 1 g/kg; for Rise in blood sugar: dose 100 mg/kg oral, average ± standard error; for action to depress the rise in blood sugar due to sucrose loading (in words): orally 25, 50 and 100 mg/kg (L-arabinose, D-xylose) or 100 mg/kg (others); for action to depress the rise in blood sugar for sucrose or starch loading (in words): summary statement
Description: (Action to depress the rise in blood sugar after carbohydrate loading)
ICR male mice (weight 30-35 g) were used in proportions of 5 mice per group.
After causing the mice to fast, sucrose or starch was orally administered in a proportion of 1 g/kg to the mice of each group, and at the same time substances to be tested were orally given to mice of their corresponding groups.
Blood was collected from the retroorbital sinus of each mouse before carbohydrate loading and upon elapsed times of 30 minutes, 60 minutes and 120 minutes after the loading to determine the concentration of glucose in the blood plasma by the glucose oxidase method.

[4] = 0.25 h, 50 mg/dl, substrate sucrose 20 mM, pH 6.8, 37° C., 15 minutes, read-out: Sucrase inhibition rate
[5] = 0.25 h, 100 mg/dl, substrate sucrose 20 mM, pH 6.8, 37° C., 15 minutes, read-out: Sucrase inhibition rate
[6] = 0.25 h, 200 mg/dl, substrate sucrose 20 mM, pH 6.8, 37° C., 15 minutes, read-out: Sucrase inhibition rate
[7] = 0.25 h, pH 6.8, read-out: Sucrase inhibition rate

T1 sequence (P07768 1008-1827 limits assumed): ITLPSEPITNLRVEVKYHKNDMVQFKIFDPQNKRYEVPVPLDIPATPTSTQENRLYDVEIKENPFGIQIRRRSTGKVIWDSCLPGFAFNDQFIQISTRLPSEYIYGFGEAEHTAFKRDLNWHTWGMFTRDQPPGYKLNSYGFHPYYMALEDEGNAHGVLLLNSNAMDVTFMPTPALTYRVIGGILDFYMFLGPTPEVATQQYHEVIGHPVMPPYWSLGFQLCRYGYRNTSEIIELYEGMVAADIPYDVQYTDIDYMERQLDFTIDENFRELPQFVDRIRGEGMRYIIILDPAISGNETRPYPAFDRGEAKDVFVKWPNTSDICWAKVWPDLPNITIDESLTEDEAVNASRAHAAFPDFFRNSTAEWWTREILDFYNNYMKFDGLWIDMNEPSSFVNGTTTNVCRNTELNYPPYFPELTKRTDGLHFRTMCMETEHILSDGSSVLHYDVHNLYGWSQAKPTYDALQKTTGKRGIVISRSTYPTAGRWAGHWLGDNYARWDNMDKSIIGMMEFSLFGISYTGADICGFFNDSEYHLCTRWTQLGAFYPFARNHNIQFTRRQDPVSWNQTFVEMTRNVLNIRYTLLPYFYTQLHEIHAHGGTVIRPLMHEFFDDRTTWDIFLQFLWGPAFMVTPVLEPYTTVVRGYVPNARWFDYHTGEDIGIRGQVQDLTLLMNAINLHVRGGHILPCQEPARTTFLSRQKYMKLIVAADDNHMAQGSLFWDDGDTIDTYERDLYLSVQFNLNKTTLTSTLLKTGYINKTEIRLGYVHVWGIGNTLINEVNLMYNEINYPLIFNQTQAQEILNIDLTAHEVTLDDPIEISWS
T1 sequence (P07768 2-1007 partner limits assumed): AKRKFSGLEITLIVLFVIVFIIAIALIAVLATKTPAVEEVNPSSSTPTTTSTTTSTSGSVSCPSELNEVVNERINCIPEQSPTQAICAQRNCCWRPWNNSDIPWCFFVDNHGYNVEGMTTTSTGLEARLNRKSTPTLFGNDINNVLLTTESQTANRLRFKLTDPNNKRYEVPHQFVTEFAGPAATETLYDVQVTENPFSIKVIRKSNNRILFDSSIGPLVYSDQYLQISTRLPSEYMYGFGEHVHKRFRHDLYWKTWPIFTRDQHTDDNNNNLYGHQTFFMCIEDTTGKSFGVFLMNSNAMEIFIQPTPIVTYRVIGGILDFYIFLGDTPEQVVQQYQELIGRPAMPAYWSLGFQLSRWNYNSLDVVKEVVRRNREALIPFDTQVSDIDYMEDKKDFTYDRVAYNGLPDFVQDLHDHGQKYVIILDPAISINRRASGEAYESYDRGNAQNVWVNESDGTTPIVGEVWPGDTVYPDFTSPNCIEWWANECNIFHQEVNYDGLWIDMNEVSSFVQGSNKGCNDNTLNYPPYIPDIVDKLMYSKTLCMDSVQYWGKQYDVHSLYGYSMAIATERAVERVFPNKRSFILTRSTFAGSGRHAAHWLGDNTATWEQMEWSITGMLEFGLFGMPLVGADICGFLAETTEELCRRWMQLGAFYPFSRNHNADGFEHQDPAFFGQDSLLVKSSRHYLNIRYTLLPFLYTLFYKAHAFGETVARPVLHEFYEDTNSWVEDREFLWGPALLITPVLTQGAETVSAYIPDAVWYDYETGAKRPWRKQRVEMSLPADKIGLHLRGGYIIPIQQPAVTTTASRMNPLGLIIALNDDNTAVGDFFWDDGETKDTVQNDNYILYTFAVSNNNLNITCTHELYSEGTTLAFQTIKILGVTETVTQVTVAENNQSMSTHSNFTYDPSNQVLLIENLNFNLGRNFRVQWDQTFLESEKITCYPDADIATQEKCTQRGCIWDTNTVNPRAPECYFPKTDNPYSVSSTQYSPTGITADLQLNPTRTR

O=C(CO)[C@@H](O)[C@@H](O)[C@H](O)CO [D-Tagatose, D-tagatose]
sucrase-inhibiting action (in words) [1]: strong sucrase-inhibiting action | inhibition at 250 µg/mL ([1]; 0.25 h, 25 mg/dl, substrate sucrose 20 mM, pH 6.8, 37° C., 15 minutes, read-out: Sucrase inhibition rate): 8.9% | inhibition at 500 µg/mL [1, 4]: 15.7% | inhibition at 1000 µg/mL [1, 5]: 30% | inhibition at 2000 µg/mL [1, 6]: 36.6% | maltase-inhibiting action (in words) [2]: strong sucrase-inhibiting action and maltase-inhibiting action | Maltase inhibition rate ([2]; 25 mg/dl): 12.5% | Maltase inhibition rate ([2]; 50 mg/dl): 17.7% | Maltase inhibition rate ([2]; 100 mg/dl): 30.3% | Maltase inhibition rate ([2]; 200 mg/dl): 33.9% | Rise in blood sugar ([3]; after 30 min.): 60.7 Δmg/dl | Rise in blood sugar ([3]; after 60 min.): 44.4 Δmg/dl | Rise in blood sugar ([3]; after 120 min.): 26.3 Δmg/dl | action to depress the rise in blood sugar due to sucrose loading (in words) [3]: significantly depressed | action to depress the rise in blood sugar for sucrose or starch loading (in words) [3]: effective action to depress the rise in blood sugar

OC[C@H]1O[C@@H](O[C@H]2[C@H](O)[C@H](O)[C@H](O[C@H]3[C@H](O)[C@H](O)[C@H](O[C@H]4[C@H](O)[C@H](O)C(O)O[C@@H]4CO)O[C@@H]3CO)O[C@@H]2CO)[C@@H](O)[C@@H](O)[C@@H]1O (some centres unmarked) [reference compound]
inhibition at 2000 µg/mL [1, 6]: -0.3% | Maltase inhibition rate ([2]; 200 mg/dl): 0.7%

N[C@H]1C(O)O[C@H](CO)[C@H](O)[C@@H]1O (stereo partly drawn) [D-Galactosamine, D-galactosamine, reference compound]
sucrase-inhibiting action (in words) [1]: no or little inhibiting action | inhibition at 2000 µg/mL [1, 6]: -6.5% | maltase-inhibiting action (in words) [2]: no or little inhibiting action | Maltase inhibition rate ([2]; 200 mg/dl): -4.5%

O=C(CO)[C@@H](O)[C@H](O)[C@@H](O)CO [L-Sorbose, L-sorbose, reference compound]
sucrase-inhibiting action (in words) [1]: no or little inhibiting action | inhibition at 2000 µg/mL [1, 6]: 5.1% | maltase-inhibiting action (in words) [2]: no or little inhibiting action | Maltase inhibition rate ([2]; 200 mg/dl): 7.5%

O=C[C@@H](O)[C@H](O)[C@H](O)CO [D-Arabinose, D-arabinose, reference compound]
sucrase-inhibiting action (in words) [1]: no or little inhibiting action | inhibition at 500 µg/mL [1, 4]: 4% | inhibition at 1000 µg/mL [1, 5]: 6.8% | inhibition at 2000 µg/mL [1, 6]: 11.7% | maltase-inhibiting action (in words) [2]: no or little inhibiting action | Maltase inhibition rate ([2]; 200 mg/dl): 7.8%

O=C[C@@H](O)[C@@H](O)[C@H](O)CO [D-Lyxose, D-lyxose]
sucrase-inhibiting action (in words) [1]: inhibiting actions second to these | inhibition at 2000 µg/mL [1, 6]: 23.4% | maltase-inhibiting action (in words) [2]: inhibiting actions second to these | Maltase inhibition rate ([2]; 200 mg/dl): 22.3% | Rise in blood sugar ([3]; after 30 min.): 62.7 Δmg/dl | Rise in blood sugar ([3]; after 60 min.): 57.0 Δmg/dl | action to depress the rise in blood sugar due to sucrose loading (in words) [3]: significantly depressed | action to depress the rise in blood sugar for sucrose or starch loading (in words) [3]: effective action to depress the rise in blood sugar

OC[C@H]1O[C@@H](O[C@H]2[C@H](O)[C@H](O)C(O)O[C@@H]2CO)[C@@H](O)[C@@H](O)[C@@H]1O (some centres unmarked) [reference compound]
inhibition at 2000 µg/mL [1, 6]: 0.9% | Maltase inhibition rate ([2]; 200 mg/dl): 0.6%

OC1OC[C@@H](O[C@@H]2OC[C@@H](O[C@@H]3OC[C@@H](O)[C@H](O)[C@H]3O)[C@H](O)[C@H]2O)[C@H](O)[C@H]1O (some centres unmarked) [reference compound]
inhibition at 2000 µg/mL [1, 6]: 2.7% | Maltase inhibition rate ([2]; 200 mg/dl): 3.6%

O=C(CO)[C@H](O)[C@@H](O)CO [L-Xylulose, L-xylulose, reference compound]
sucrase-inhibiting action (in words) [1]: no or little inhibiting action | inhibition at 2000 µg/mL [1, 6]: 10.8% | maltase-inhibiting action (in words) [2]: no or little inhibiting action | Maltase inhibition rate ([2]; 200 mg/dl): 6.4%

O=C[C@@H](O)[C@@H](O)[C@@H](O)[C@H](O)CO [D-Talose, D-talose, reference compound]
sucrase-inhibiting action (in words) [1]: no or little inhibiting action | inhibition at 2000 µg/mL [1, 7]: 5.4% | maltase-inhibiting action (in words) [2]: no or little inhibiting action | Maltase inhibition rate ([2]; 200 mg/dl): 5.3%

OC1OC[C@@H](O[C@@H]2OC[C@@H](O)[C@H](O)[C@H]2O)[C@H](O)[C@H]1O (some centres unmarked) [reference compound]
inhibition at 2000 µg/mL [1, 6]: 10.7% | Maltase inhibition rate ([2]; 200 mg/dl): 5.5%

O=C[C@@H](O)[C@@H](O)[C@H](O)[C@H](O)CO [D-Mannose, D-mannose, reference compound]
sucrase-inhibiting action (in words) [1]: no or little inhibiting action | inhibition at 500 µg/mL [1, 7]: -0.7% | inhibition at 1000 µg/mL [1, 7]: 12.9% | inhibition at 2000 µg/mL [1, 7]: 19.3% | inhibition at 4000 µg/mL [1, 7]: 27.8% | maltase-inhibiting action (in words) [2]: no or little inhibiting action | Maltase inhibition rate ([2]; 50 mg/dl): 3.2% | Maltase inhibition rate ([2]; 100 mg/dl): 10.6% | Maltase inhibition rate ([2]; 200 mg/dl): 25.1% | Maltase inhibition rate ([2]; 400 mg/dl): 30.4%

OC[C@H]1O[C@@H](OC[C@H]2OC(O)[C@H](O)[C@@H](O)[C@@H]2O)[C@H](O)[C@@H](O)[C@@H]1O (some centres unmarked) [Gentiobiose, reference compound]
inhibition at 2000 µg/mL [1, 6]: -2.4% | Maltase inhibition rate ([2]; 200 mg/dl): 1.9%

C[C@@H](O)[C@H](O)[C@H](O)[C@@H](O)C=O [D-Fucose, D-fucose, reference compound]
sucrase-inhibiting action (in words) [1]: no or little inhibiting action | inhibition at 2000 µg/mL [1, 6]: 8.7% | maltase-inhibiting action (in words) [2]: no or little inhibiting action | Maltase inhibition rate ([2]; 200 mg/dl): 4.1%

OC1OC[C@@H](O[C@@H]2OC[C@@H](O[C@@H]3OC[C@@H](O[C@@H]4OC[C@@H](O[C@@H]5OC[C@@H](O[C@@H]6OC[C@@H](O)[C@H](O)[C@H]6O)[C@H](O)[C@H]5O)[C@H](O)[C@H]4O)[C@H](O)[C@H]3O)[C@H](O)[C@H]2O)[C@H](O)[C@H]1O (some centres unmarked) [reference compound]
inhibition at 2000 µg/mL [1, 6]: -7.9% | Maltase inhibition rate ([2]; 200 mg/dl): -5.1%

OC[C@H]1O[C@@H](O[C@H]2[C@H](O)[C@H](O)[C@H](O[C@H]3[C@H](O)[C@H](O)[C@H](O[C@H]4[C@H](O)[C@H](O)[C@H](O[C@H]5[C@H](O)[C@H](O)C(O)O[C@@H]5CO)O[C@@H]4CO)O[C@@H]3CO)O[C@@H]2CO)[C@@H](O)[C@@H](O)[C@@H]1O (some centres unmarked) [reference compound]
inhibition at 2000 µg/mL [1, 6]: 4% | Maltase inhibition rate ([2]; 200 mg/dl): 3.5%

OC1OC[C@@H](O[C@@H]2OC[C@@H](O[C@@H]3OC[C@@H](O[C@@H]4OC[C@@H](O[C@@H]5OC[C@@H](O)[C@H](O)[C@H]5O)[C@H](O)[C@H]4O)[C@H](O)[C@H]3O)[C@H](O)[C@H]2O)[C@H](O)[C@H]1O (some centres unmarked) [reference compound]
inhibition at 2000 µg/mL [1, 6]: -0.5% | Maltase inhibition rate ([2]; 200 mg/dl): 1.5%

O=C[C@H](O)[C@@H](O)[C@@H](O)[C@H](O)CO [D-Galactose, D-galactose, reference compound]
sucrase-inhibiting action (in words) [1]: no or little inhibiting action | inhibition at 500 µg/mL [1, 7]: -0.6% | inhibition at 1000 µg/mL [1, 7]: -0.9% | inhibition at 2000 µg/mL [1, 7]: 6.4% | inhibition at 4000 µg/mL [1, 7]: 20.2% | maltase-inhibiting action (in words) [2]: no or little inhibiting action | Maltase inhibition rate ([2]; 50 mg/dl): -0.8% | Maltase inhibition rate ([2]; 100 mg/dl): 13.9% | Maltase inhibition rate ([2]; 200 mg/dl): 15.3% | Maltase inhibition rate ([2]; 400 mg/dl): 11.8%

OC[C@H]1O[C@@H](O[C@H]2[C@H](O)[C@H](O)[C@H](O[C@H]3[C@H](O)[C@H](O)C(O)O[C@@H]3CO)O[C@@H]2CO)[C@@H](O)[C@@H](O)[C@@H]1O (some centres unmarked) [reference compound]
inhibition at 2000 µg/mL [1, 6]: 2% | Maltase inhibition rate ([2]; 200 mg/dl): 1.3%

OC1OC[C@@H](O[C@@H]2OC[C@@H](O[C@@H]3OC[C@@H](O[C@@H]4OC[C@@H](O)[C@H](O)[C@H]4O)[C@H](O)[C@H]3O)[C@H](O)[C@H]2O)[C@H](O)[C@H]1O (some centres unmarked) [reference compound]
inhibition at 2000 µg/mL [1, 6]: 3.5% | Maltase inhibition rate ([2]; 200 mg/dl): 2.0%

O=C[C@H](O)[C@H](O)[C@@H](O)CO [L-Lyxose, L-lyxose, reference compound]
sucrase-inhibiting action (in words) [1]: no or little inhibiting action | inhibition at 2000 µg/mL [1, 6]: -0.2% | maltase-inhibiting action (in words) [2]: no or little inhibiting action | Maltase inhibition rate ([2]; 200 mg/dl): 10.0%

OC[C@H]1O[C@@H](O[C@H]2[C@H](O)[C@@H](O)C(O)O[C@@H]2CO)[C@H](O)[C@@H](O)[C@@H]1O (some centres unmarked) [Cellobiose, reference compound]
inhibition at 2000 µg/mL [1, 6]: -0.4% | Maltase inhibition rate ([2]; 200 mg/dl): 2.8%

Reference: patent US5468734A, “Prophylactic and remedial preparation for diseases attendant on hyperglycemia, and wholesome food” (Godo Shusei Co., Ltd., priority 1992, dated 1995)
